Data on eight molecules can be found in BindingDB's records for doi:10.1021/jm00147a033 (1985).

Test [1] can be described thus: Compound was evaluated for reversible inhibition of hydrolysis acetylcholine by acetylcholinesterase and represented as KI(competitive).
Test [2] can be described thus: Compound was evaluated for reversible inhibition of hydrolysis acetylcholine by acetylcholinesterase and represented as KI(noncompetitive).
A short description of test [3]: Compound was evaluated for reversible inhibition of hydrolysis of acetylcholine by acetylcholinesterase and represented as KI(competitive).
Test [4] can be described thus: Compound was evaluated for reversible inhibition of hydrolysis acetylcholine by acetylcholinesterase and represented as KI(competitive). The source holds these as a separate data set.

Usually Ki stands for the equilibrium dissociation constant of an inhibitor or competing ligand from its target. Read a low Ki as higher affinity. With `CS(=O)(=O)CCO` [2-Methanesulfonyl-ethanol], the Ki in test [1] is 8.7 mM; in test [2], 100 mM.

As for `CC(=O)CCC[N+](C)(C)[O-]` [5-dimethylamino-2-pentanone-N-oxide], affinity in test [3] was put at a Ki of 14 mM.

Turning to `C[Si](C)(C)CCO` [2-Trimethylsilanyl-ethanol], the inhibitory constant (Ki) in test [1] is 3.3 mM.

In test [4], `CC(=O)OCCS(C)(=O)=O` [Acetic acid 2-methanesulfonyl-ethyl ester] showed an inhibition constant Ki of 6.4 mM.

`C[S+](C)C` [Trimethyl-sulfonium; iodide]: the inhibition constant (Ki) in test [1] is 2 mM; in test [2] it was 7.2 mM.

With `C[N+](C)(C)CCO` [2-hydroxy-N,N,N-trimethylethanaminium], in test [2], the inhibition constant (Ki) is 7.6 mM.

For the molecule `CS(C)(I)CCO` [(2-Hydroxy-ethyl)-dimethyl-sulfonium; iodide], in test [2], the Ki is 13 mM.

`CC(C)(C)CCO` [3,3-Dimethyl-butan-1-ol] displayed an inhibition constant (Ki) in test [2] of 19 mM.
